# Data as given in US20230060422A1, “COMBINATION TREATMENT OF LIVER DISEASES USING INTEGRIN INHIBITORS” (NOVARTIS AG, priority 2019, published 2023).
# “Also recorded” adds a separate entry of the source. Where two headings read alike, the source gives them in different places.
# Columns and labels:
# CDAHFD NASH mouse model [1] = test: 10-week CDAHFD study, comparison with CWHM12; type: in vivo; settings: 4 weeks treatment in 10-week CDAHFD study
# Procedure: (§1) CDAHFD injury is a rodent model of NASH displaying liver fat accumulation, inflammation, and fibrosis (Matsumoto 2013). Three types of studies were performed: 1) prophylactic, Compound 1 in an abbreviated 3-week CDAHFD model; 2) therapeutic, Compound 1 for 6 weeks in the 11- to 12-week CDAHFD model; and 3) Compound 1 for 4 weeks in a 10-week CDAHFD model.
# Although pan-αv inhibition with CWHM12 reduced pSMAD and OHP levels, selective αvβ1 inhibition was sufficient for antifibrotic activity.
# CDAHFD NASH mouse model [2] = test: Therapeutic 11- to 12-week CDAHFD injury studies; type: in vivo
# Procedure: as §1
# Compound 1 was tested therapeutically in 11- to 12-week CDAHFD injury studies at medium, high and highest doses across 3 independent studies.
# human integrin αVβ1 [3] = molecular target: T1, human integrin αVβ1 (Homo sapiens, UniProt P05556+P06756); test: ALPHASCREEN proximity-based integrin binding assay; parameters: 6xHis (on the heterodimer); settings: read-out: Proximity-Based Assy IC50, αvβ1
# Procedure: (§2) Compound 1 was tested for αVβ1 or αVβ6 integrin biochemical potency using the ALPHASCREEN® (Perkin Elmer, Waltham, Mass.) proximity-based assay (a bead-based, non-radioactive Amplified Luminescent Proximity Homogeneous Assay) as described previously (Ullman E F et al., Luminescent oxygen channeling immunoassay: Measurement of particle binding kinetics by chemiluminescence. Proc. Natl. Acad. Sci. USA, Vol. 91, pp. 5426-5430, June 1994). To gauge the potency of inhibitors of binding to human integrin αVβ1 or αvβ6, the inhibitor compound and the integrin were incubated together with recombinant TGFβ1 LAP and biotinylated anti-LAP antibody plus acceptor and donor beads, following the manufacturer's recommendations. The donor beads were coated with streptavidin. […] All incubations occurred at room temperatures in 50 mM Tris-HCl, pH 7.5, 0.1% BSA supplemented with 1 mM each CaCl2 and MgCl2. The order of reagent addition was as follows: 1. αVβ1 or αVβ6 integrin, test inhibitor Compound 1, LAP, biotinylated anti-LAP antibody and acceptor beads were all added together. 2. After 2 hours, donor beads were added. After another 30 min incubation, samples were read.
# human integrin αvβ6 [4] = molecular target: T2, human integrin αvβ6 (Homo sapiens, UniProt P06756+P18564); test: ALPHASCREEN proximity-based integrin binding assay; parameters: 6xHis (on the heterodimer); settings: read-out: Proximity-Based Assy IC50, αvβ6
# Procedure: as §2
# CDAHFD NASH mouse model [5] = test: Prophylactic abbreviated 3-week CDAHFD NASH model; type: in vivo; settings: high dose
# Procedure: as §1
# [6] = system: precision cut liver slices from cirrhotic NASH patient explants; test: Profibrotic gene expression and fibrosis biomarkers in precision cut liver slices; type: cell-based, human; parameters: reduction of gene expression of collagen, type 1, alpha 1 (COL1A1) / reduction of the level of FBN-C in culture media / reduction of PRO-C1 in culture media / reduction of PRO-C3 in culture media / reduction of PRO-C4 in culture media: concentration or dose not given beside the values
# Procedure: The ability of Compound 1 to inhibit the expression of profibrotic genes and decrease biomarkers of fibrosis was measured in precision cut liver slices generated using cirrhotic liver tissues from NASH patient explants and from rodent models of liver fibrosis and NASH.
# Data are mean +/−standard deviation from the 5 cirrhotic NASH patients. DMSO was used as the solvent and utilized at a constant concentration (0.1%) across the different groups. […] was used as a positive control.
# [7] = system: murine CCl4 model of liver fibrosis; test: 3-week murine CCl4 model of liver fibrosis; type: in vivo, mice; settings: all doses, dosed during the final week of injury
# Procedure: Antifibrotic activity of Compound 1 was established in an abbreviated, 3-week, murine CCl4 model of liver fibrosis. CCl4 is a hepatotoxin that when injected into mice results in liver fibrosis (Constandinou 2005). Compound 1 was dosed during the final week of injury.
# [8] = system: healthy male and female participants; test: First-in-human single and multiple ascending dose study; type: in vivo; settings: single and multiple (7 days) ascending doses, thus far
# Procedure: Part A of the study was a first-in-human, randomized, double-blind, placebo-controlled, parallel-group, single ascending dose study of the safety, tolerability, and PK of Compound 1 in a maximum of […] healthy male and female (non-childbearing potential) participants. Forty participants will be enrolled in up to 5 sequential cohorts.
# Part B of the study is on-going and was initiated after the first 2 cohorts in Part A of the study had been completed. The doses in Part B were determined from Part A of the study and were not higher than the highest dose that was administered in Part A of the study.
# Part B of the study is a randomized, double-blind, placebo-controlled, parallel-group, multiple ascending dose study of the PK, PD, safety, and tolerability of Compound 1 administered for 7 days in a maximum of 40 healthy male and female (non-childbearing potential) participants.
# human integrin αVβ1 [9] = molecular target: T1, human integrin αVβ1; test: Solid phase integrin binding assay (TGFβ1 LAP binding)
# Procedure: (§3) Microplates were coated with recombinant human integrin αVβ1 or αVβ6 (2 μg/mL) in PBS (100 μL/well 25° C., overnight). The coating solution was removed, washed with wash buffer (0.05% Tween 20; 0.5 mM MnCl2; in 1×TBS). The plate was blocked with 200 μL/well of Block Buffer (1% BSA; 5% sucrose; 0.5 mM MnCl2; in 1×TBS) at 37° C. for 2 h. Dilutions of Compound 1 and recombinant TGFβ1 LAP (0.67 μg/mL) in binding buffer (0.05% BSA; 2.5% sucrose; 0.5 mM MnCl2; in 1×TBS) were added. The plate was incubated for 2 hours at 25° C., washed, and incubated for 1 hour with Biotin-Anti-hLAP. Bound antibody was detected by peroxidase-conjugated streptavidin. The IC50 values for the testing compound were calculated by a four-parameter logistic regression.
# human integrin αvβ6 [10] = molecular target: T2, human integrin αvβ6; test: as above
# Procedure: as §3
# [11] = system: Patients with histologically confirmed NASH (F1-F3) or phenotypic NASH; test: Placebo-controlled, randomized Phase 2a study of licogliflozin, 12 weeks (NCT03205150); type: in vivo, human
# Procedure: Method: Patients with histologically confirmed NASH (F1-F3) or phenotypic NASH (BMI≥27 kg/m^2 in non-Asians or ≥23 kg/m^2 in Asians, ALT≥50 (males) or ≥35 (females) and type 2 diabetes (T2DM)) received daily oral licogliflozin at 150 mg, 30 mg or placebo in a 2:2:1 ratio for 12 weeks (NCT03205150). The primary endpoint was the effect on ALT level after 12 weeks of treatment. Secondary endpoints include improvement in body weight, liver fat content and AST, amongst others. The study size was 110 of which 77 completed (placebo (n=18); licogliflozin 30 mg (n=25) and licogliflozin 150 mg (n=34)) and are included in the interim analysis.
# [12] = system: healthy subjects, patients with T2DM, obese patients; settings: cited from earlier work
# [13] = all doses (medium, high, highest), therapeutic, 3 independent studies
# [14] = did not achieve statistical significance
# [15] = two days of treatment, slices from 5 cirrhotic NASH patients
# [16] = 30 mg, 12 weeks, interim analysis
# [17] = 150 mg, 12 weeks, interim analysis
# T1 sequence (P06756 31-992 limits assumed): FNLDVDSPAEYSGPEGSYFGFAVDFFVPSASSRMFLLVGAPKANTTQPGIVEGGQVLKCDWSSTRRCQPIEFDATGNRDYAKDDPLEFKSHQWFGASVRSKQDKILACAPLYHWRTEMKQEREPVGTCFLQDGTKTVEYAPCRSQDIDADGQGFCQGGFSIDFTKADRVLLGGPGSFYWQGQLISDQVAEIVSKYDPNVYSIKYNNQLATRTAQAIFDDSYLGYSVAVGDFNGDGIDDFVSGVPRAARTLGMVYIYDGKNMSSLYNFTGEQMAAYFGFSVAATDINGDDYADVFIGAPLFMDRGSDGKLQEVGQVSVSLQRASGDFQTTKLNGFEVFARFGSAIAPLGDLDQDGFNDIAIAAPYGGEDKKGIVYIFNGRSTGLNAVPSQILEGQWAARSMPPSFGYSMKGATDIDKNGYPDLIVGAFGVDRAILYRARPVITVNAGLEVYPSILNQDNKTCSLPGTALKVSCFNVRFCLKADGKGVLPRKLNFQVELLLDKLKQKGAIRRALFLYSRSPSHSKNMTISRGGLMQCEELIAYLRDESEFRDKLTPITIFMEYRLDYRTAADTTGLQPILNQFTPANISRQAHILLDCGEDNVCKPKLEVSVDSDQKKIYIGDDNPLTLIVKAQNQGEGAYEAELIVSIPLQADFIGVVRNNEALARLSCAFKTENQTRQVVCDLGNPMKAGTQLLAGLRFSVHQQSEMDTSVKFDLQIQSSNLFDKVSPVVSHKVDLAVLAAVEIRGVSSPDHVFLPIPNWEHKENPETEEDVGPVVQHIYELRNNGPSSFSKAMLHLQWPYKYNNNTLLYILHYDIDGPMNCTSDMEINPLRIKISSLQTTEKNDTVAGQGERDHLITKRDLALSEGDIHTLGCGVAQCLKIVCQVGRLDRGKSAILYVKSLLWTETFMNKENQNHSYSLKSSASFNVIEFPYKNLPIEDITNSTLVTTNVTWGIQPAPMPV
# T1 sequence (P05556 21-728 limits assumed): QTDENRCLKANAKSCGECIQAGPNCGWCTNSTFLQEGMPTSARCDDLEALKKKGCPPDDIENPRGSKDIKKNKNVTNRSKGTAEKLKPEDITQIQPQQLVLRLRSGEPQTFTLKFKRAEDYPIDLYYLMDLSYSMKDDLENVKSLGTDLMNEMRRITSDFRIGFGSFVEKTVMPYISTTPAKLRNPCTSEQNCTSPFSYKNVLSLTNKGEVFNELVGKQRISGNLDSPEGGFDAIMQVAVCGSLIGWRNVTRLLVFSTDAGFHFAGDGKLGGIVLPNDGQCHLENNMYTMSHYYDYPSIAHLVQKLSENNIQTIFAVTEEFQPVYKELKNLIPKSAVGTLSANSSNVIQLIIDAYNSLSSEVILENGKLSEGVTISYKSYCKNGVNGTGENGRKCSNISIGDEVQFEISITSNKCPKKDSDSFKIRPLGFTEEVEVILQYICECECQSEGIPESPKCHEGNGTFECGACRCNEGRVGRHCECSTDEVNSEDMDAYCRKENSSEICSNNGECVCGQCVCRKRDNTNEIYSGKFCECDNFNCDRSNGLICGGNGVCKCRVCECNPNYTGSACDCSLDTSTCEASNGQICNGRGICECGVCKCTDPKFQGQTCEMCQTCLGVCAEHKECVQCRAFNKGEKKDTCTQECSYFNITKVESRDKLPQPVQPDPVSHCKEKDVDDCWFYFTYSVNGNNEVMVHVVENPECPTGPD
# T2 sequence (P06756 31-992 limits assumed): as the sequence (P06756 31-992 limits assumed) above
# T2 sequence (P18564 22-707 limits assumed): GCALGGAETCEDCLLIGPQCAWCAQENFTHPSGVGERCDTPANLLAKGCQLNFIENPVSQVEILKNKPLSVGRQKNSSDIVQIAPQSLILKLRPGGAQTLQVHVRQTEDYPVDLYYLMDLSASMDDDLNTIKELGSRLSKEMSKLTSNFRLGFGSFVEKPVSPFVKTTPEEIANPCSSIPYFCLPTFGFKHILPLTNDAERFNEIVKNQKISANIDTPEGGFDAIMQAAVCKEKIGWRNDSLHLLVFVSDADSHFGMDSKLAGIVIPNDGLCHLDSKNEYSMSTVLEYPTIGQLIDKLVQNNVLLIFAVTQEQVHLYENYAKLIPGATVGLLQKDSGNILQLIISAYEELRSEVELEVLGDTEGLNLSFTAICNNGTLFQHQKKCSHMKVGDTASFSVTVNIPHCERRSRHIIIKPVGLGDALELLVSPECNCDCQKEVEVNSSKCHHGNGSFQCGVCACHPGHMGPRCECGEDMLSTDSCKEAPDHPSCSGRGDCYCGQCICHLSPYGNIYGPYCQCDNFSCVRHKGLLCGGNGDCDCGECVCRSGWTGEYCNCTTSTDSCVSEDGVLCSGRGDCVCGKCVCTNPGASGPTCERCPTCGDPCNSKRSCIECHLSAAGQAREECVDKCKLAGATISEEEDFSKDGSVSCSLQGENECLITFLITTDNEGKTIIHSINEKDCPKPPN
smiles,measurement,setting,value
"CC(C)(C)c1cc(Br)cc([C@H](CC(=O)O)NC(=O)CNC(=O)c2cc(O)cc(NC3=NCC(O)CN3)c2)c1 (stereo partly drawn) [CWHM12, (3S)—N-[3-hydroxy-5-[(1,4,5,6-tetrahydro-5-hydroxy-2-pyrimidinyl)amino]benzoyl] glycyl-3-[3-bromo-5-(1,1-dimethylethyl)phenyl]-β-alanine]",reduction of OHP concentrations,CDAHFD NASH mouse model [1],30%
same,reduction of pSMAD3 levels,CDAHFD NASH mouse model [1],61%
"CC1(C(=O)N[C@@H](CCCCCCCc2ccc3c(n2)NCCC3)C(=O)O)CCOCC1 [Compound 1, (S)-2-(4-methyltetrahydro-2H-pyran-4-carboxamido)-9-(5,6,7,8-tetrahydro-1,8-naphthyridin-2-yl)nonanoic acid]",reduction of hepatic OHP,CDAHFD NASH mouse model [2]; [13],up to 38%
same,reduction of pSMAD3 levels,CDAHFD NASH mouse model [2]; [13],up to 57%
same,Collagen gene expression (Col1a1 and Col3a1),CDAHFD NASH mouse model [2]; high and highest doses,significantly reduced
same,"gene expression of profibrotic markers Ctgf, Mmp-2, and Timp1",CDAHFD NASH mouse model [2]; high and highest doses,significantly reduced
same,Gene expression of Acox1 and Ehhadh,"CDAHFD NASH mouse model [2]; mouse, in vivo",significantly increased
same,collagen area (histological analysis),"CDAHFD NASH mouse model [2]; mouse, in vivo",significant reduction
same,composite fibrosis score (second harmonic generation imaging): quantity and quality of the collagen fibers,"CDAHFD NASH mouse model [2]; mouse, in vivo",significant reduction
same,reduction in OHP concentration,"CDAHFD NASH mouse model [2]; separate sentence of b235, dose not stated",24%
same,IC50,human integrin αVβ1 [3],50 to 250 nM
same,IC50,human integrin αvβ6 [4],< 50 nM
same,expression of Ehhadh,CDAHFD NASH mouse model [5]; both studies,significantly elevated
same,gene expression of collagens,CDAHFD NASH mouse model [5]; one of the two studies,Significantly reduced
same,decrease of pSMAD3 levels in the liver,"CDAHFD NASH mouse model [5]; prophylactic, 3-week CDAHFD",19%
same,reduction of hepatic OHP concentrations,"CDAHFD NASH mouse model [5]; prophylactic, both studies",~30%
same,reduction of PRO-C1 in culture media,[6]; [14],34%
same,reduction of PRO-C3 in culture media,[6]; [14],16%
same,reduction of PRO-C4 in culture media,[6]; [14],15%
same,reduction of the level of FBN-C in culture media,[6]; significant,26%
same,metalloproteinase inhibitor 1 (TIMP1) gene expression,[6]; [15],reduced
same,"reduction of gene expression of collagen, type 1, alpha 1 (COL1A1)",[6]; [15],39%
same,Levels of phosphorylated SMAD3 (pSMAD3)/SMAD3 in the liver,[7],significantly reduced
same,"hepatic Col1a1, Col1a2, and Col3a1 expression",[7],significant reduction; also recorded: significantly reduced
same,tolerability in healthy volunteers,[8],well tolerated
same,reduction of OHP concentrations,CDAHFD NASH mouse model [1],24%
same,reduction of pSMAD3 levels,CDAHFD NASH mouse model [1],40%
same,IC50,human integrin αVβ1 [9],< 50 nM
same,IC50,human integrin αvβ6 [10],< 50 nM
"CCc1ccc([C@@H]2O[C@H](CO)[C@@H](O)[C@H](O)[C@H]2O)cc1Cc1ccc2c(c1)OCCO2 [licogliflozin, (2S,3R,4R,5S,6R)-2-(3-((2,3-dihydrobenzo[b][1,4]dioxin-6-yl)methyl)-4-ethylphenyl)-6-(hydroxymethyl)tetrahydro-2H-pyran-3,4,5-triol]",Absolute reduction in liver fat,[11]; [16],2.71%
same,"Diarrhea (most common adverse event), patients reporting",[11]; [16],40%
same,Placebo adjusted reduction in HbA1c (absolute change),[11]; [16],0.81%
same,Relative reduction in liver fat content,[11]; [16],10%
same,patients achieving at least 5% absolute reduction in liver fat,[11]; [16],43.5%
same,proportion of patients with at least a 30% relative reduction in liver fat content,[11]; [16],39.5%
same,reduction in AST,[11]; [16],23%
same,reduction in GGT,[11]; [16],26%
same,placebo-adjusted reduction in GGT,"[11]; 30 mg, Week 12, full analysis",24%
same,placebo-adjusted reduction in serum ALT,"[11]; 30 mg, Week 12, full analysis",21%
same,placebo-adjusted reduction in serum AST,"[11]; 30 mg, Week 12, full analysis",21%
same,Absolute reduction in liver fat,[11]; [17],4.45%
same,"Diarrhea (most common adverse event), patients reporting",[11]; [17],76.5%
same,Placebo adjusted reduction in HbA1c (absolute change),[11]; [17],0.96%
same,Relative reduction in liver fat content,[11]; [17],22%
same,patients achieving at least 5% absolute reduction in liver fat,[11]; [17],63.3%
same,proportion of patients with at least a 30% relative reduction in liver fat content,[11]; [17],66.7%
same,reduction in AST,[11]; [17],30%
same,reduction in GGT,[11]; [17],32%
same,placebo-adjusted reduction in GGT,"[11]; 150 mg, Week 12, full analysis",36%
same,placebo-adjusted reduction in serum ALT,"[11]; 150 mg, Week 12, full analysis",32%
same,placebo-adjusted reduction in serum AST,"[11]; 150 mg, Week 12, full analysis",32%
same,safety and tolerability,[11]; 12 weeks of treatment,safe and tolerable
same,absolute and relative liver fat content,"[11]; 12 weeks, full analysis",Dose-dependent decreases
same,HOMA-IR (insulin sensitivity),"[11]; Week 12, full analysis",improvements
same,HbA1c (glycemic control),"[11]; Week 12, full analysis",improvements
same,body weight compared with placebo,"[11]; Week 12, full analysis",Statistically significant reductions
same,waist circumference compared with placebo,"[11]; Week 12, full analysis",Statistically significant reductions
same,Placebo adjusted reduction in body weight,"[11]; both doses (150 mg and 30 mg), 12 weeks, interim analysis",~4%
same,weight loss in obese patients,"[12]; 150 mg daily dose, 12 week treatment",~6%
same,safety and tolerability,"[12]; 150 mg once daily, twelve weeks, normoglycemic and dysglycemic subjects",generally safe and well tolerated
same,dose-limiting toxicity,"[12]; 150 mg once daily, twelve weeks",diarrhea
same,safety and tolerability,[12]; healthy subjects and patients with T2DM,safe and tolerated
same,pharmacokinetic profile,"[12]; human, in vivo",favorable pharmacokinetic profile
same,placebo-adjusted weight loss,"[12]; over 2 weeks, healthy subjects and patients with T2DM",up to 3%
